Measured values as given in ChEMBL document CHEMBL1132355, “Novel arylpyrazino[2,3-c][1,2,6]thiadiazine 2,2-dioxides as platelet aggregation inhibitors. 2. Optimization by quantitative structure-activity relationships” (J Med Chem, 1999).

experiment: Inhibition of platelet aggregation (rabbit platelet-rich plasma),induced by arachidonic acid, (100% inhibitory response); conditions: Oryctolagus cuniculus

SMILES	EC100
NC(=O)CN1c2nc(-c3ccccc3)c(-c3ccccc3)nc2C(N)=NS1(=O)=O	3 µg/mL
CN1c2nc(-c3ccc(Br)cc3)c(-c3ccc(Br)cc3)nc2C(N)=NS1(=O)=O	1 µg/mL
NC1=NS(=O)(=O)N(Cc2ccccc2)c2nc(-c3ccccc3)c(-c3ccccc3)nc21	3 µg/mL
CCOc1nc2c(nc1-c1ccc(Cl)cc1)C(N)=NS(=O)(=O)N2CC	10 µg/mL
COc1ccc(-c2nc3c(nc2-c2ccc(OC)cc2)N(C)S(=O)(=O)N=C3N)cc1	0.001 µg/mL
CCN1c2nc(-c3cccs3)c(-c3cccs3)nc2C(N)=NS1(=O)=O	3 µg/mL
CN1c2nc(-c3ccc(F)cc3)c(-c3ccc(F)cc3)nc2C(N)=NS1(=O)=O	0.3 µg/mL
COc1cccc(-c2nc3c(nc2-c2cccc(OC)c2)N(C)S(=O)(=O)N=C3N)c1	> 10 µg/mL
CCN1c2nc(-c3ccc(Cl)cc3)c(-c3ccc(Cl)cc3)nc2C(N)=NS1(=O)=O	3 µg/mL
CC(C)(C)OC(=O)CN1c2nc(-c3ccccc3)c(-c3ccccc3)nc2C(N)=NS1(=O)=O	1 µg/mL
CCOC(=O)CN1c2nc(-c3ccccc3)c(-c3ccccc3)nc2C(N)=NS1(=O)=O	0.1 µg/mL

The next lines start with the values.

EC100	SMILES
10 µg/mL	CCN1c2nc(-c3ccccc3)c(Cl)nc2C(N)=NS1(=O)=O
0.1 µg/mL	COc1nc2c(nc1-c1ccccc1)C(N)=NS(=O)(=O)N2C
1 µg/mL	CN1c2nc(-c3ccco3)c(-c3ccco3)nc2C(N)=NS1(=O)=O
> 10 µg/mL	CCOC(=O)CN1c2nc(-c3ccccc3)cnc2C(N)=NS1(=O)=O
3 µg/mL	CN1c2nc(-c3ccccn3)c(-c3ccccn3)nc2C(N)=NS1(=O)=O
0.3 µg/mL	CCOc1nc2c(nc1-c1ccccc1)C(N)=NS(=O)(=O)N2C
1 µg/mL	CCN1c2ncc(-c3ccccc3)nc2C(N)=NS1(=O)=O
> 10 µg/mL	Cc1ccc(-c2cnc3c(n2)N(C)S(=O)(=O)N=C3N)cc1
0.03 µg/mL	CN1c2ncc(-c3ccccc3F)nc2C(N)=NS1(=O)=O
1 µg/mL	CCN1c2nc(-c3ccccc3)c(Br)nc2C(N)=NS1(=O)=O
> 10 µg/mL	CCN1c2nc(-c3ccccc3)cnc2C(N)=NS1(=O)=O
0.3 µg/mL	CN1c2ncc(-c3ccccc3)nc2C(N)=NS1(=O)=O
1 µg/mL	CCN1c2nc(C)c(-c3ccccc3)nc2C(N)=NS1(=O)=O
1 µg/mL	CCN1c2nc(-c3ccccc3)c(C)nc2C(N)=NS1(=O)=O
10 µg/mL	CCOC(=O)CN1c2nc(-c3ccccc3)c(Br)nc2C(N)=NS1(=O)=O
0.3 µg/mL	CCN1c2nc(-c3ccccc3)c(-c3ccccc3)nc2C(N)=NS1(=O)=O
